Laboratory results taken from US8415312B2, “Compound which is a nystatin derivative” (Biosergen AS, priority 2007, dated 2013).
Values after ≈ are worked out from the molar mass of the structure shown. Values joined by “and” are separate entries in the source; they are usually repeats but may differ in a detail not shown here. Equal entries are not always repeated.

Key:
[1] = tested on: Fusarium oxysporum VKM F-140; assay: Antifungal susceptibility study (1), broth microdilution MIC; assay type: cell-based; settings: lowest concentration preventing any visible growth, read at 48 hours, 35° C., RPMI 1640 pH 7.0
Experimental: (§1) ACROS ORGANICS, New Jersey, USA), pH 7.0, was used in study. […] Then these DMSO solutions were diluted 50-fold (first 10-fold and then 5-fold) in the test medium. […] The solutions were prepared just before using. The organisms used for susceptibility testing were: Candida albicans ATCC 14053, Cryptococcus humicolus ATCC 9949, Aspergillus niger ATCC 16404 and Fusarium oxysporum VKM F-140 (=CMI, IMI 90473). Organisms were stored on potato dextrose agar […] 50% glycerol solution at -70° C. For short-term storage, stock cultures were stored on agar […] 4° C. The cultures of yeasts were sub-cultured onto Sabouraud dextrose (SAB) agar and incubated for 24 hours at 35° C. (Candida albicans) or for 48 hours at 25° C. (Cryptococcus humicolus) to obtain a freshly grown pure culture. The cultures of moulds were sub-cultured onto potato dextrose agar and incubated for 7 days at 35° C. […] (Fusarium oxysporum) to ensure maximum sporulation. […] Finally, the suspensions were vortexed for 15 s to break up clumps of cells and then filtered through four layers of sterile gauze. The densities of conidial spore suspensions was measured at 530 nm and adjusted to 0.09-0.11 for Aspergillus niger and 0.15-0.17 for Fusarium oxysporum. These suspensions were diluted 1:50 with the standard medium. […] Inoculum quantitation was performed by plating dilution of the inoculum on Sabouraud dextrose agar to determine the viable number of CFU per milliliter. Sterile 96-well flat-bottomed microtitration plates were used for testing. 100 μl of diluted inocula were dispensed into each microdilution well containing 100 μl of the double dilutions of compounds. Drug-free and yeast/mould-free controls were included. Microdilution trays were incubated at 35° C. (Candida albicans and moulds) or 25° C. (Cryptococcus humicolus) without agitation and observed for the presence or absence of visible growth. […] Minimal inhibitory concentrations (MICs) were read at 48 hours.

[2] = tested on: Aspergillus niger ATCC 16404; assay: as above; assay type: cell-based; settings: lowest concentration preventing any visible growth, read at 48 hours, 35° C., RPMI 1640 pH 7.0
Experimental: as §1

erythrocytes = assay: In vitro toxicity study, haemolysis (Tables 11 and 12); assay type: cell-based, horse; settings: for Haemolysis of erythrocytes, Mean ± S.E.M.: 25 μM (Table 12)
Experimental: The toxicity of various nystatin derivatives was tested at 2 and 5 μg/mL and at 25 μM.
Compounds were dissolved in DMSO at 5 mg/mL and 0.1 mL samples with different concentrations were prepared in DMSO. The samples were mixed with 0.9 mL PBS buffer containing 2.5% horse blood (PBS-HB; kept on ice) and incubated at 37° C. for 30 min without agitation.
Cells were pelleted by centrifugation at 5000 rpm for 5 min and haemolysis was evaluated by measuring OD545. 100% haemolysis was defined as the OD545 value obtained from a suspension of 2.5% horse blood in distilled water.

[3] = tested on: Cryptococcus humicolus ATCC 9949; assay: Antifungal susceptibility study (1), broth microdilution MIC; assay type: cell-based; settings: lowest concentration preventing any visible growth, read at 48 hours, 25° C., RPMI 1640 pH 7.0
Experimental: (§2) ACROS ORGANICS, New Jersey, USA), pH 7.0, was used in study. […] Then these DMSO solutions were diluted 50-fold (first 10-fold and then 5-fold) in the test medium. […] The solutions were prepared just before using. The organisms used for susceptibility testing were: Candida albicans ATCC 14053, Cryptococcus humicolus ATCC 9949, Aspergillus niger ATCC 16404 and Fusarium oxysporum VKM F-140 (=CMI, IMI 90473). Organisms were stored on potato dextrose agar […] 50% glycerol solution at -70° C. For short-term storage, stock cultures were stored on agar […] 4° C. The cultures of yeasts were sub-cultured onto Sabouraud dextrose (SAB) agar and incubated for 24 hours at 35° C. (Candida albicans) or for 48 hours at 25° C. (Cryptococcus humicolus) to obtain a freshly grown pure culture. The cultures of moulds were sub-cultured onto potato dextrose agar and incubated for 7 days at 35° C. […] (Fusarium oxysporum) to ensure maximum sporulation. […] Inoculum quantitation was performed by plating dilution of the inoculum on Sabouraud dextrose agar to determine the viable number of CFU per milliliter. Sterile 96-well flat-bottomed microtitration plates were used for testing. 100 μl of diluted inocula were dispensed into each microdilution well containing 100 μl of the double dilutions of compounds. Drug-free and yeast/mould-free controls were included. Microdilution trays were incubated at 35° C. (Candida albicans and moulds) or 25° C. (Cryptococcus humicolus) without agitation and observed for the presence or absence of visible growth. […] Minimal inhibitory concentrations (MICs) were read at 48 hours.

[4] = tested on: Candida albicans ATCC 14053; assay: as above; assay type: cell-based; settings: lowest concentration preventing any visible growth, read at 48 hours, 35° C., RPMI 1640 pH 7.0
Experimental: as §2

[5] = tested on: Candida albicans (strain 14053 ATCC); assay: Model of the candidiasis sepsis of mice, kidney burden; assay type: in vivo
Experimental: In experiments used female mice of hybrids of first generation (C57B1/6xDBA/2)F1 (B6D2F1), weight 18-20 g., received from the Central farm “Kryukovo” of Russian Academies of Medical Science (RAMS). Animals were maintained in Institute' vivarium in plastic cages (with hardwood bedding in environmentally controlled room: 24±1° C., 12/12 hours light/dark cycle) on a standard diet of bricketed forages with an easy approach to drinking water (ad libitum). After 2-week quarantine healthy animals were used in experimental work.
A preparation of comparison was amphotericin B (pure). Solutions of tested preparations prepared ex tempore by the technique specified by the customer.
Animals were housed on 3 mice and infected intravenously with culture Candida albicans in a doze 1.0 million CFU/mouse in volume of 0.1 ml. It is necessary to note, that doze Candida albicans remained a constant in all experiments. In 30 minutes after infection to mice carried out the first intravenous introduction of tested preparations in corresponding dozes in volume of 0.2 ml (with a speed of 0.2 ml/30 second).
Experiment has been planned in such a manner that in each experiment one doze (both for amphotericin B was used, and for tested preparations), each doze entered daily within four days, since day of infection (0, 1, 2 and 3 days). At each experiment there was a group untreated, infected with Candida albicans animals. Also there was a group “placebo”, intact (not infected) animals, which intravenously (in the same volume as medical preparations) injected 0.2 ml of solvent—phosphatic buffer +5% glucose (1:1).
On the post challenge 5th day of experiment, mice were weighed and euthanized (killed) by a cervical dislocation. Then, in sterile conditions, Candida albicans burdens were determined by viable counting of homogenates from the kidneys. The kidneys, which were removed aseptically and weighed, pounded in porcelain mortars with sterile corundum, did dilutions of the received suspensions and sowed on Petri dishes with agar Saburo, incubated for 48 hours at temperature 35° C., then counted up developed colonies Candida albicans and recalculated their quantity on 1 g of kidney' tissue. The first dilution was 10^−1. Zero result at this cultivation accepted for 5 CFU/g.
For the basic criterion of an assessment of the investigated preparations the maximal effect of the Amphotricin B was accepted (effective dose, ED).
For significant accepted distinctions of average at P≦0.05 at comparison by Student t-criterion.

[6] = tested on: mice (C57B1/6xDBA/2)F1 B6D2F1; settings: single injection into tail vein, probit analysis
Experimental: Male mice of hybrids of first generation (C57B1/6xDBA/2)F1 B6D2F1, weight 20-22 g., received from the Central farm. “Kryukovo” of Russian Academies of Medical Science (RAMS) were used. Animals were maintained in a vivarium in plastic cages (with hardwood bedding in environmentally controlled conditions: 24±1° C., 12/12 hours light/dark cycle) on a standard diet of bricketed forages with easy access to drinking water (ad libitum). After a 2-week quarantine period, healthy animals were used in experimental work.
The solutions were prepared as follows: dry antibiotic substances (5 mg) were mixed with dry sodium deoxycholate (4.1 mg) in a sterile glass vial. 10 mL of phosphate buffer (NaH2PO4—1.59 g; Na2HPO4—0.96 g; H2O—to 100 mL) was added to the mix and the suspension was immediately subjected to vigorous shaking for 10 minutes until homogeneous suspensions were formed.
Preparations of amphotericin B and S44HP were also prepared in the same way.
The antibiotic preparations were singly injected into the mice's tail vein within 1-1.5 hours after the preparation of solutions. […] Each antibiotic was used in a range of doses resulting in 0% to 100% lethality and a minimum of 3 intermediate doses. Animals were randomized into groups, each containing 6 mice.

[7] = 25 μM, individual blood samples (Table 12)
[8] = dose 0.16 mg/kg/d i.v. for four days, day 5, n=3 mice
[9] = dose 0.62 mg/kg/d i.v. for four days, day 5, n=3 mice
[10] = dose 2.5 mg/kg/d i.v. for four days, day 5, n=3 mice
[11] = dose 10 mg/kg/d i.v. for four days, day 5, n=3 mice, zero result accepted for 5 CFU/g

CC1C=CC=CC=CC=CC=CC=CC=CC(OC2OC(C)C(O)C(N)C2O)CC2OC(O)(CC(O)C(O)CCC(O)CC(O)CC(O)CC(=O)OC(C)C(C)C1O)CC(O)C2C(=O)NCCO (stereo not drawn) [Compound 5]
MIC Fusarium oxysporum VKM F-140 [1]: 4 µg/mL (≈ 4.14 µM)
MIC Aspergillus niger ATCC 16404 [2]: 4 µg/mL (≈ 4.14 µM)
Haemolysis of erythrocytes, Mean ± S.E.M. (erythrocytes): 1.6 ± 0.2%
Haemolysis of erythrocytes (erythrocytes; [7]): 1% and 1.9% and 1.3% and 2% and 1.8% and 2.1%
MIC Cryptococcus humicolus ATCC 9949 [3]: 4 µg/mL (≈ 4.14 µM)
MIC Candida albicans ATCC 14053 [4]: 2 µg/mL (≈ 2.07 µM)

CNC(=O)C1C(O)CC2(O)CC(O)C(O)CCC(O)CC(O)CC(O)CC(=O)OC(C)C(C)C(O)C(C)C=CC=CC=CC=CC=CC=CC=CC(OC3OC(C)C(O)C(N)C3O)CC1O2 (stereo not drawn) [Compound 6]
MIC Fusarium oxysporum VKM F-140 [1]: 4 µg/mL (≈ 4.27 µM)
MIC Aspergillus niger ATCC 16404 [2]: 4 µg/mL (≈ 4.27 µM)
Haemolysis of erythrocytes, Mean ± S.E.M. (erythrocytes): 3.7 ± 0.6%
Haemolysis of erythrocytes (erythrocytes; [7]): 3.7% and 4.3% and 3.2% and 2% and 2.4% and 3.3% and 7%
MIC Cryptococcus humicolus ATCC 9949 [3]: 2 µg/mL (≈ 2.13 µM)
MIC Candida albicans ATCC 14053 [4]: 2 µg/mL (≈ 2.13 µM)

CC1C=CC=CC=CC=CC=CC=CC=CC(OC2OC(C)C(O)C(N)C2O)CC2OC(O)(CC(O)C(O)CCC(O)CC(O)CC(O)CC(=O)OC(C)C(C)C1O)CC(O)C2C(N)=O (stereo not drawn) [Compound 7]
MIC Fusarium oxysporum VKM F-140 [1]: 8 µg/mL (≈ 8.67 µM)
MIC Aspergillus niger ATCC 16404 [2]: 2 µg/mL (≈ 2.17 µM)
Haemolysis of erythrocytes, Mean ± SE (erythrocytes; 5 μg/mL (Table 11)): 5.2 ± 0.2%
Haemolysis of erythrocytes (erythrocytes; 5 μg/mL, individual blood samples # 1-3 (Table 11)): 5.8% and 5.0% (2×)
Haemolysis of erythrocytes, Mean ± S.E.M. (erythrocytes): 1.5 ± 0.17%
Haemolysis of erythrocytes (erythrocytes; [7]): 1.7% and 1.3% and 1.9% (3×) and 1.0% and 0.9%
MIC Cryptococcus humicolus ATCC 9949 [3]: 1 µg/mL (≈ 1.08 µM)
MIC Candida albicans ATCC 14053 [4]: 2 µg/mL (≈ 2.17 µM)

CC1O[C@@H](O[C@H]2/C=C/C=C/C=C/C=C/C=C/C=C/C=C/[C@H](C)[C@@H](O)[C@@H](C)[C@H](C)OC(=O)C[C@H](O)C[C@H](O)C[C@H](O)CC[C@@H](O)[C@H](O)C[C@]3(O)C[C@H](O)[C@@H](C(=O)NCCN(C)C)[C@H](C2)O3)[C@H](O)C(NCC2(O)OC[C@@H](O)[C@@H](O)[C@@H]2O)[C@@H]1O.Cl (stereo partly drawn) [Compound 41]
Candida albicans burden in kidneys (Mean) [5, 8]: 67000 CFU/g
Candida albicans burden in kidneys (Mean) [5, 9]: 22667 CFU/g
Candida albicans burden in kidneys (Mean) [5, 10]: 1667 CFU/g
Candida albicans burden in kidneys (Mean) [5, 11]: 5 CFU/g
Candida albicans burden in kidneys (Mean) ([5]; in vivo, iv, 1.25 mg/kg/day): 2767 CFU/g
MIC Fusarium oxysporum VKM F-140 [1]: 2 µg/mL
MIC Aspergillus niger ATCC 16404 [2]: 1 µg/mL
LD50 [6]: 38.6 mg/kg
MTD [6]: 21.2 mg/kg
MIC Cryptococcus humicolus ATCC 9949 [3]: 1 µg/mL
MIC Candida albicans ATCC 14053 [4]: 0.5 µg/mL

CC1C=CC=CC=CC=CC=CC=CC=CC(OC2OC(C)C(O)C(NCC3(O)OCC(O)C(O)C3O)C2O)CC2OC(O)(CC(O)C(O)CCC(O)CC(O)CC(O)CC(=O)OC(C)C(C)C1O)CC(O)C2C(=O)O (single isomer, unassigned) [Compound 18]
MIC Fusarium oxysporum VKM F-140 [1]: 8 µg/mL (≈ 7.36 µM)
MIC Aspergillus niger ATCC 16404 [2]: 2 µg/mL (≈ 1.84 µM)
Haemolysis of erythrocytes, Mean ± S.E.M. (erythrocytes): 3.9 ± 1.3%
Haemolysis of erythrocytes (erythrocytes; [7]): 3.0% and 3.2% and 9.7% and 1.0% and 1.5% and 5.3%
MIC Cryptococcus humicolus ATCC 9949 [3]: 1 µg/mL (≈ 0.921 µM)
MIC Candida albicans ATCC 14053 [4]: 1 µg/mL (≈ 0.921 µM)

CC1O[C@@H](O[C@H]2/C=C/C=C/C=C/C=C/C=C/C=C/C=C/[C@H](C)[C@@H](O)[C@@H](C)[C@H](C)OC(=O)C[C@H](O)C[C@H](O)C[C@H](O)CC[C@@H](O)[C@H](O)C[C@]3(O)C[C@H](O)[C@@H](C(=O)NCCN(C)C)[C@H](C2)O3)[C@H](O)C(N)[C@@H]1O (stereo partly drawn) [Compound 48, N,N-dimethylaminoethyl (DMAE) S44HP Amide]
Candida albicans burden in kidneys (Mean) [5, 8]: 51667 CFU/g
Candida albicans burden in kidneys (Mean) [5, 9]: 3233 CFU/g
Candida albicans burden in kidneys (Mean) ([5]; dose 1.25 mg/kg/d i.v. for four days, day 5, n=3 mice): 1487 CFU/g
Candida albicans burden in kidneys (Mean) [5, 10]: 63 CFU/g
Candida albicans burden in kidneys (Mean) [5, 11]: 5 CFU/g
MIC Fusarium oxysporum VKM F-140 [1]: 1 µg/mL (≈ 1.01 µM)
MIC Aspergillus niger ATCC 16404 [2]: 1 µg/mL (≈ 1.01 µM)
LD50 [6]: 32.2 mg/kg
MTD [6]: 25.9 mg/kg
MIC Cryptococcus humicolus ATCC 9949 [3]: 0.5 µg/mL (≈ 0.503 µM)
MIC Candida albicans ATCC 14053 [4]: 0.5 µg/mL (≈ 0.503 µM)
